Measured values reported in patent US20140243292A1, “SUBSITUTED 2-(CHROMAN-6-YLOXYL)-THIAZOLES AND THEIR USE AS PHARMACEUTICALS” (Sanofi, priority 2011, published 2014).
Where a name gives a salt, the structure may show the parent alone.

target: T1, human NCX1 (Homo sapiens, UniProt P32418); assay: NCX1 inhibition, reverse mode (Ca2+ influx into cells), FLIPR Fluo-4 assay; type: cell-based; conditions: NCX1 reverse mode; at 30 μM; read-out: Inhibition in % at 30 μM (NCX1rv; IC50 value not determined)
T1 construct: expressed in transfected cells
Excerpt: The sodium/calcium exchanger NCX1 can transport calcium ions and sodium ions through the cell membrane. The transport is an exchange of Ca^2+ and Na^+ in two directions depending on membrane potential and ion gradients. At the first direction, named “forward mode” or “calcium export mode”, Ca^2+ is transported out of the cell and Na^+ is transported into the cell. At the other direction, named “reverse mode” or “calcium import mode”, the transport directions are vice versa. The effect of the compounds of the invention on NCX1 was determined in CHO cells stably expressing human NCX1 (gene symbol SLC8A1; cf. WO 2009/115238). The assay is based on the monitoring of intracellular Ca^2+ concentrations using a calcium-sensitive fluorescence dye which is detected by means of a FLIPR device (Fluorimetric Imaging Plate Reader, Molecular Devices).
The assay is based on the monitoring of intracellular Ca^2+ concentrations using the calcium-sensitive dye Fluo-4. CHO cells expressing NCX1 were loaded with the dye by means of the acetoxymethyl ester Fluo-4 AM (Invitrogen, F14202), which is cleaved intracellularly by esterase activity to yield the charged species of free Fluo-4. After an preincubation period with the test compound, Gramicidine (Sigma, G5002) was added. Gramicidine is an ionophor for Na^+ ions mediating an increase of intracellular Na^+ ions. Consequently, intracellular Na^+ ions are exchanged against extracellular Ca^2+ ions (Ca^2+ influx, reverse mode). The intracellular elevation of Ca^2+ ions was detected by measuring the fluorescence of Fluo-4 at a wavelength of 520 nm by a FLIPR device.
Briefly, for the reverse mode transport assay 18000 cells per well were seeded into a 96 well microplate (Corning COSTAR 3904) and incubated overnight in culture medium (1× Nut Mix F12 (Ham) (Gibco, 21765-029); 10% (v/v) fetal calf serum (PAA Gold, A15-649); 450 μg/ml Geneticin (Gibco, 10131-027)). A total volume of 100 μl medium per well was used. For the preparation of the FLIPR assay, the culture medium was removed from the plates and 100 μl of dye solution (2 μM Fluo-4 AM; 0.02% (v/v) Pluronic F-127 (20%, Invitrogen, P3000MP); 0.1% (v/v) bovine albumin solution (30% (v/v), Sigma, A9205) in assay buffer (133.8 mM NaCl (Sigma, S5886); 4.7 mM KCl (Sigma, P3911); 1.25 mM MgCl2 (Merck, 1.05833.0250); 3.5 mM CaCl2 (Merck, 1.02083.0250); 5 mM glucose (Sigma, G7021); 10 mM Hepes (Sigma, H4034); 0.01% (v/v) Pluronic F-127 (5%, Sigma, P2443); 2.5 mM Probenecid (Maybridge, SB00915EB); pH 7.4)) were added into each well. The plates were incubated in the dark at room temperature for 80 min. After the incubation period, the dye solution was removed and the wells were washed with 100 μl of assay buffer. Then 80 μl of a solution of the test compound in assay buffer in different concentrations were added into the wells. The plates were incubated at 16° C. for 45 min. Meanwhile a 60 μM solution of Gramicidine in assay buffer (4° C.) was prepared and stored in the wells of a 96 well microplate (96 well microplate, polypropylene, U-shape (Greiner Bio-One, 650201)) at 4° C. until measurement was started. The fluorescence monitoring was performed at 240 measuring points with measurement intervals of 2 sec. After the fifth measuring point, 40 μl of the Gramicidine solution were added to each well of the assay plates to give a final Gramicidine concentration of 20 μM. For the determination of the IC50 values the minimal fluorescence value was subtracted from the maximal fluorescence value for all measuring points. The calculation of the IC50 values via the percentage inhibitions of Ca^2+ influx into cells (reverse mode) effected by the test compound was performed in Biost@t Speed 2.0.

inhibition at 30 µM [%] | SMILES
44 | CC(C)C[C@H](NC(=O)c1cnc(Oc2ccc3c(c2)CC[C@@H](c2ccccc2)O3)s1)C(=O)OC(C)(C)C [compound 229]

same assay, conditions: inhibition of NCX1 in reverse mode (Ca2+ influx into cells); read-out: NCX1rv IC50

IC50 [nM] | SMILES
1000 | CC1(C)C[C@@H](C(=O)O)N(C(=O)c2cnc(Oc3ccc4c(c3)CC[C@@H](c3ccccc3)O4)s2)C1 [compound 234]
700 | COC(=O)[C@H](O)[C@H](CC(C)C)NC(=O)c1cnc(Oc2ccc3c(c2)CC[C@@H](c2ccccc2)O3)s1 [compound 226]
900 | O=C(NCc1cnc(Oc2ccc3c(c2)CCC(c2ccccc2)O3)s1)[C@@H]1CCCN1 (stereo partly drawn) [compound 341, hydrochloride]
2600 | CO[C@H]1CNC[C@@H]1NC(=O)c1cnc(Oc2ccc3c(c2)CCC(c2cccnc2)O3)s1 (stereo partly drawn) [compound 269, hydrochloride]
1600 | CC(C)C[C@H](NC(=O)c1cnc(Oc2ccc3c(c2)CC[C@@H](c2ccccc2)O3)s1)[C@@H](O)C(=O)O [compound 236]
170 | O=C(CN1CCCC1)NCc1cnc(Oc2ccc3c(c2)CCC(c2ccccc2)O3)s1 (stereo not drawn) [compound 346, hydrochloride]
1500 | COC(=O)C(C)(CC(C)C)NC(=O)c1cnc(Oc2ccc3c(c2)CC[C@@H](c2ccccc2)O3)s1 (stereo partly drawn) [compound 231]
830 | Cc1cc2c(cc1Oc1ncc(C(=O)NCc3ccno3)s1)CCC(c1ccccc1C)O2 (stereo not drawn) [compound 358]
250 | O=C(NC1CCCC1O)c1cnc(Oc2ccc3c(c2)CCC(c2ccccc2)O3)s1 (stereo not drawn) [compound 355]
300 | COC(=O)C1CN(C(=O)c2cnc(Oc3ccc4c(c3)CC[C@@H](c3ccccc3)O4)s2)CC1C (stereo partly drawn) [compound 224]
200 | CC(C)OC(=O)CNC(=O)c1cnc(Oc2ccc3c(c2)CCC(c2ccccc2)O3)s1 (stereo not drawn) [compound 307]
3100 | COC(=O)[C@@H](NC(=O)c1cnc(Oc2ccc3c(c2)CCC(c2cccnc2)O3)s1)C(C)(C)C (stereo partly drawn) [compound 264]
1100 | Cc1nn(C)c(C)c1CCC(=O)NCc1cnc(Oc2ccc3c(c2)CC[C@@H](c2ccccc2)O3)s1 [compound 297]
9600 | COc1cccc(C2CCc3cc(Oc4ncc(C(=O)NCc5ccno5)s4)ccc3O2)c1F (stereo not drawn) [compound 361]
2500 | O=C(NC1C2CNCC21)c1cnc(Oc2ccc3c(c2)CCC(c2cccnc2)O3)s1 (stereo not drawn) [compound 268]
300 | NC1CCN(C(=O)c2cnc(Oc3ccc4c(c3)CC[C@@H](c3ccccc3)O4)s2)C1 (stereo partly drawn) [compound 292]
700 | CC(C)CC(C)(NC(=O)c1cnc(Oc2ccc3c(c2)CC[C@@H](c2ccccc2)O3)s1)C(=O)O (stereo partly drawn) [compound 242]
7300 | NC1CC(NC(=O)c2cnc(Oc3ccc4c(c3)CCC(c3cccnc3)O4)s2)C1 (stereo not drawn) [compound 265, hydrochloride]

The remaining lines, values behind:

SMILES | IC50 [nM]
COC(=O)[C@@H]1[C@@H]2C[C@@H]2CN1C(=O)c1cnc(Oc2ccc3c(c2)CC[C@@H](c2ccccc2)O3)s1 [compound 222] | 900
Cc1nc(Oc2ccc3c(c2)CCC(c2ccccc2)O3)sc1C(=O)NCCc1ccncc1 (stereo not drawn) [compound 170, hydrochloride] | 300
Cc1noc(C)c1CC(=O)NCc1cnc(Oc2ccc3c(c2)CCC(c2ccccc2)O3)s1 (stereo not drawn) [compound 77] | 400
c1ccc(C2CCc3cc(Oc4ncc(CNC5CCC5)s4)ccc3O2)cc1 (stereo not drawn) [compound 110] | 200
Cc1cc(C(=O)NCc2cnc(Oc3ccc4c(c3)CCC(c3ccccc3)O4)s2)n(C)n1 (stereo not drawn) [compound 66] | 600
O=C(NCc1ccnc(Cl)c1)c1cnc(Oc2ccc3c(c2)CCC(c2ccsc2)O3)s1 (stereo not drawn) [compound 211, hydrochloride] | 400
CCn1nccc1CNC(=O)c1cnc(Oc2ccc3c(c2)CCC(c2ccccc2)O3)s1 (stereo not drawn) [compound 3] | 400
CCn1ccc(C(=O)NCc2cnc(Oc3ccc4c(c3)CCC(c3ccccc3)O4)s2)n1 (stereo not drawn) [compound 93] | 500
O=C(NCc1cnc(Oc2ccc3c(c2)CCC(c2ccccc2)O3)s1)c1ccncn1 (stereo not drawn) [compound 89] | 200
c1ccc(C2CCc3cc(Oc4ncc(CNCC5CC5)s4)ccc3O2)cc1 (stereo not drawn) [compound 120] | 300
Cc1nn(C)c(C)c1C(=O)NCc1cnc(Oc2ccc3c(c2)CCC(c2ccccc2)O3)s1 (stereo not drawn) [compound 67] | 300
Cc1nn(C)cc1C(C)NC(=O)c1cnc(Oc2ccc3c(c2)CCC(c2ccccc2)O3)s1 (stereo not drawn) [compound 23] | 800
O=C(NCc1cnc(Oc2ccc3c(c2)CCC(c2ccccc2)O3)s1)c1ccnc(N2CCCCC2)c1 (stereo not drawn) [compound 75] | 9800
O=C(N[C@H](CO)c1ccccc1)c1cnc(Oc2ccc3c(c2)CC[C@@H](c2ccccc2)O3)s1 [compound 201] | 300
O=C(NC1(C(=O)O)CC1)c1cnc(Oc2ccc3c(c2)CC[C@@H](c2ccccc2)O3)s1 [compound 199] | 1000
O=C(Cc1cccnc1)NCc1cnc(Oc2ccc3c(c2)CCC(c2cccc(F)c2)O3)s1 (stereo not drawn) [compound 45, hydrochloride] | 100
O=C(Cc1cccnc1)NCc1cnc(Oc2ccc3c(c2)CCC(c2ccccc2)O3)s1 (stereo not drawn) [compound 16, hydrochloride] | 100
Cc1nc2ccc(S(=O)(=O)NCc3cnc(Oc4ccc5c(c4)CCC(c4ccccc4)O5)s3)cc2s1 (stereo not drawn) [compound 124] | 900

SMILES | IC50 [nM]
Cc1ncsc1CCNC(=O)c1cnc(Oc2ccc3c(c2)CCC(c2ccccc2)O3)s1 (stereo not drawn) [compound 7] | 300
Cc1noc(C)c1CCCNCc1cnc(Oc2ccc3c(c2)CCC(c2ccccc2)O3)s1 (stereo not drawn) [compound 153] | 500
CC(C)CNCc1cnc(Oc2ccc3c(c2)CCC(c2ccccc2)O3)s1 (stereo not drawn) [compound 101] | 400
Cc1c(CNCc2cnc(Oc3ccc4c(c3)CCC(c3ccccc3)O4)s2)cnn1C (stereo not drawn) [compound 138] | 300
O=C(NCc1cnc(Oc2ccc3c(c2)CCC(c2ccccc2)O3)s1)c1ccncc1F (stereo not drawn) [compound 81] | 1100
c1ccc(C2CCc3cc(Oc4ncc(CNCCn5cccn5)s4)ccc3O2)cc1 (stereo not drawn) [compound 149] | 300
FC1(F)CCN(Cc2cnc(Oc3ccc4c(c3)CCC(c3ccccc3)O4)s2)CC1 (stereo not drawn) [compound 109] | 700
C[C@H](O)[C@H](CO)NC(=O)c1cnc(Oc2ccc3c(c2)CC[C@@H](c2ccccc2)O3)s1 [compound 202] | 200
Cc1noc(C)c1CCNC(=O)c1cnc(Oc2ccc3c(c2)CCC(c2ccccc2)O3)s1 (stereo not drawn) [compound 34] | 200
O=C(NCc1ccncc1Cl)c1cnc(Oc2ccc3c(c2)CCC(c2ccccc2)O3)s1 (stereo not drawn) [compound 40] | 400
Cc1nc(Oc2ccc3c(c2)CCC(c2ccccc2)O3)sc1C(=O)NCc1ccno1 (stereo not drawn) [compound 166] | 300
c1ccc(C2CCc3cc(Oc4ncc(CNCc5ccncn5)s4)ccc3O2)cc1 (stereo not drawn) [compound 161] | 300
Cn1cc(S(=O)(=O)NCc2cnc(Oc3ccc4c(c3)CCC(c3ccccc3)O4)s2)cn1 (stereo not drawn) [compound 129] | 900
O=C(Cc1ccccn1)NCc1cnc(Oc2ccc3c(c2)CCC(c2ccccc2)O3)s1 (stereo not drawn) [compound 19, hydrochloride] | 100
Cc1ccc(C(=O)NCc2cnc(Oc3ccc4c(c3)CCC(c3ccccc3)O4)s2)cn1 (stereo not drawn) [compound 64] | 1300
CC(C)CCNCc1cnc(Oc2ccc3c(c2)CCC(c2ccccc2)O3)s1 (stereo not drawn) [compound 115] | 600
Cn1cnc(S(=O)(=O)NCc2cnc(Oc3ccc4c(c3)CCC(c3ccccc3)O4)s2)c1 (stereo not drawn) [compound 50, 1-Methyl-1H-imidazole-4-sulfonic acid [2-(2-phenyl-chroman-6-yloxy)-thiazol-5-ylmethyl]-amide hydrochloride] | 200
